Measurements published in patent US11879140B2, “P21 mRNA targeting DNAzymes” (1E Therapeutics Ltd., priority 2020, dated 2024).

What was measured:
human p21 mRNA = assay: In vitro cleavage assay of human p21 mRNA; format: biochemical; conditions: in vitro cleavage of p21 mRNA (SEQ ID NO: 1); RNA substrate 500 nM, 37° C. 60 min, agarose gel
Excerpt: Total RNA was isolates from senescent IMR-90 cells using Nucleospin® RNA kit (Macherey-Nagel™). cDNA was synthesized with gene-specific reverse primers using M-MLV Reverse Transcriptase (Promega), according to the manufacturer's protocol. To generate template for in vitro transcription (IVT) reaction, the cDNA was PCR amplified using KAPA Taq EXtra HotStart® ReadyMix™ PCR Kit (R&D). PCR product was run on 1.5% agarose TAE gel, the correct band size was cut and DNA was cleaned using Wizard® SV Gel and PCR Clean-Up System kit (Promega). IVT was performed using HiScribe™ T7 High Yield RNA Synthesis Kit (NEB). Samples were then treated with DNase I (New England Biolabs) and incubated for 15 minutes at 37° C. IVT product was run on 1.5% agarose TBE gel, the correct band size was cut and RNA was cleaned using QIAquick® Gel Extraction Kit (Qiagen). See primer sequences in Table 1, below.
RNA substrate was diluted with Molecular Biology Grade Water (Biological Industries) and used in in vitro cleavage assay. A 20 μl reaction system comprising RNA substrate (final concentration 500 nM), 2 μl 10× reaction buffer (50 mM Tris-HCl pH 7.4, 100 mM NaCl, 10 mM MgCl2) and 1 μl DNAzyme (10 μM) (as depicted in Table 2, below) was mixed. Reactions were incubated at 37° C. for 60 min. 2×RNA L.D. (Thermo Fisher) was added to each sample. Samples were heated at 70° C. for 30 sec, centrifuged and loaded onto 1.5% agarose TBE gels. Quantification was performed using Image Lab software (Bio Rad).

[1] = system: senescent human IMR-90 fibroblast cells; format: cell-based
Procedure: Human IMR-90, BJ, WI-38 fibroblasts and REC epithelial cells were obtained from ATCC and grown at 5% oxygen. IMR-90 and REC cells were maintained in DMEM medium comprising 100 units per ml of penicillin, […] of streptomycin and 10% fetal bovine serum. BJ and WI-38 cells were maintained in EMEM medium comprising 100 units per ml of penicillin, […] of streptomycin, 10% fetal bovine serum, 1% Pyruvate, 1% L-Glutamine, mLFs were isolated according to standard procedures [Seluanov, A., et al. J Vis Exp (2010) (44):2033] and grown at 5% oxygen. Cells were maintained in EMEM medium comprising 100 units per ml of penicillin, […] of streptomycin and 15% fetal bovine serum.
DNA damage induced senescence (DIS) was induced by etoposide treatment (E1383, Sigma) at a concentration of […] for IMR-90, BJ, and WI-38, 16 μM for mLF and 12.5 μM for REC for a duration of 48 hours. Cells acquired the senescence phenotype 7 days post treatment (determined by SA-beta-gal staining).
Oncogene Induced Senescence (OIS) was induced by means of retroviral infection with H-RasG12 (pLNCX2) at 5% oxygen. Retroviruses were packaged, and infections were performed as described below.
Replicative Induced Senescence (RIS) was induced by long-term passaging of the cells in tissue culture. Cells acquired the senescence phenotype after 40 population doublings.
Primary target cells (IMR-90, BJ, […]) were plated in 24-well plates at 100,000 cells per well. Cells were transfected with different concentrations of DNAzymes (as depicted in Table 2, below) using Lipofectamine™ 2000 (Invitrogen) according to manufacturer instructions. The percentage of survival was determined based on quantification of remaining adherent cells using PrestoBlue® reagent (A13262, Life Technologies Ltd.) relative to Lipofectamine™ only control and compared to Scramble DNAzyme (Dz_Scramble) [Scramble Arm (Scr A) sequence: ATCTTCCTFggctagctacaacgaCGCCTCTCC, SEQ ID NO: 5, or Scramble catalytic core (Scr B) sequence: AGGAGAACAacagtaactggcgacGGGATGAGG, SEQ ID NO: 86] treated cells, 3-6 days following transfection.

DNAzyme 857: SEQ ID NO: 34: GCAGGCTTtccgagccggacgaTGTGGGCGG (GCAGGCTTTCCGAGCCGGACGATGTGGGCGG; DNA, backbone and methylation of C not given here)
Validated cleavage (human p21 mRNA): validated for mediating cleavage of p21 mRNA

DNAzyme 1786: SEQ ID NO: 60: GAGGTAGAAggctagctacaacgaTAGGGTGCC (DNA GAGGTAGAAGGCTAGCTACAACGATAGGGTGCC; DNA, backbone and methylation of C not given here)
Validated cleavage (human p21 mRNA): validated for mediating cleavage of p21 mRNA

974 (DNA GGGTATGTAGGCTAGCTACAACGAATGAGGAGG; chemistry not given here) [compound 974]
Validated cytotoxicity [1]: +

1683 (DNA AGAGGGTATCCGAGCCGGACGAGAAGGGAAA; chemistry not given here) [compound 1683]
Validated cytotoxicity [1]: +

1591 (DNA CAAAAGGTAGGCTAGCTACAACGAAGGGGAGCC; chemistry not given here) [compound 1591]
Validated cytotoxicity [1]: +

352 (DNA GTTCTGACAGGCTAGCTACAACGAGGCGCCTGA; chemistry not given here) [compound 352]
Validated cytotoxicity [1]: +

1938 (DNA TTTGAGGGGGGCTAGCTACAACGACAGTGTCTC; chemistry not given here) [compound 1938]
Validated cytotoxicity [1]: +

174 (DNA GCAAAGAAAGGCTAGCTACAACGAGACTATAGT; chemistry not given here) [compound 174]
Validated cytotoxicity [1]: +

1504 (DNA GGGGTGGTTCCGAGCCGGACGAGCTCCAGGA; chemistry not given here) [compound 1504]
Validated cytotoxicity [1]: +

1873 (DNA ATAACCCCAGGCTAGCTACAACGATCAAGGGGG; chemistry not given here) [compound 1873]
Validated cytotoxicity [1]: +

78 (DNA TGTCTCCTAGGCTAGCTACAACGACATCCCCTT; chemistry not given here) [compound 78]
Validated cytotoxicity [1]: +

111 (DNA CATCCTTTAGGCTAGCTACAACGATTCTGGGGT; chemistry not given here) [compound 111]
Validated cytotoxicity [1]: +

2235 (DNA ACCAGGACAGGCTAGCTACAACGAATGGGGAGC; chemistry not given here) [compound 2235]
Validated cytotoxicity [1]: +

1003 (DNA GCCAGAGGTCCGAGCCGGACGAGGGGGGCAG; chemistry not given here) [compound 1003]
Validated cytotoxicity [1]: +

1742 (DNA TCCAGTCCAGGCTAGCTACAACGATGAGCTGGG; chemistry not given here) [compound 1742]
Validated cytotoxicity [1]: +

266 (DNA GTCTGTCTTCCGAGCCGGACGATGAATACTC; chemistry not given here) [compound 266]
Validated cytotoxicity [1]: +

1967 (DNA TGGGGTGGAGGCTAGCTACAACGAGAGGAAGGT; chemistry not given here) [compound 1967]
Validated cytotoxicity [1]: +

1602 (DNA CTGGGGCTTCCGAGCCGGACGATCAAAAGGT; chemistry not given here) [compound 1602]
Validated cytotoxicity [1]: +

100 (DNA TCTGGGGTTCCGAGCCGGACGATTAGAGGTC; chemistry not given here) [compound 100]
Validated cytotoxicity [1]: +

1791 (DNA TGCCTGAGGGGCTAGCTACAACGAAGAACTAGG; chemistry not given here) [compound 1791]
Validated cytotoxicity [1]: +

225 (DNA CTGGGGAAAGGCTAGCTACAACGATGGGGCTCA; chemistry not given here) [compound 225]
Validated cytotoxicity [1]: +

1872 (DNA TAACCCCATCCGAGCCGGACGACAAGGGGGC; chemistry not given here) [compound 1872]
Validated cytotoxicity [1]: +

236 (DNA CGTATACATCCGAGCCGGACGAGCTGGGGAA; chemistry not given here) [compound 236]
Validated cytotoxicity [1]: +

835 (DNA AGGGCTTCTCCGAGCCGGACGACTTGGAGAA; chemistry not given here) [compound 835]
Validated cytotoxicity [1]: +

1418 (DNA AGCTCAGCTCCGAGCCGGACGATAGGCTGTG; chemistry not given here) [compound 1418]
Validated cytotoxicity [1]: +

387 (DNA GCTGCCGCAGGCTAGCTACAACGAGGGTTCTGA; chemistry not given here) [compound 387]
Validated cytotoxicity [1]: +

1417 (DNA GCTCAGCCTCCGAGCCGGACGAAGGCTGTGC; chemistry not given here) [compound 1417]
Validated cytotoxicity [1]: +

290 (DNA AGGGGAGGAGGCTAGCTACAACGATTGACGAGT; chemistry not given here) [compound 290]
Validated cytotoxicity [1]: +

1986 (DNA GCAATGAATCCGAGCCGGACGAGGGGAGGGA; chemistry not given here) [compound 1986]
Validated cytotoxicity [1]: +

2266 (DNA AGAGGTTTAGGCTAGCTACAACGAAGTCTAGGT; chemistry not given here) [compound 2266]
Validated cytotoxicity [1]: +

846 (DNA GTGGGCGGAGGCTAGCTACAACGATAGGGCTTC; chemistry not given here) [compound 846]
Validated cytotoxicity [1]: +

1800 (DNA TGCTTGAGTCCGAGCCGGACGAGCCTGAGGT; chemistry not given here) [compound 1800]
Validated cytotoxicity [1]: +

857 (DNA GCAGGCTTTCCGAGCCGGACGATGTGGGCGG; chemistry not given here) [compound 857]
Validated cytotoxicity [1]: +

1455 (DNA AGGGGGGTAGGCTAGCTACAACGACAAGAGCCA; chemistry not given here) [compound 1455]
Validated cytotoxicity [1]: +

1013 (DNA TAATTCTAAGGCTAGCTACAACGAGCCAGAGGC; chemistry not given here) [compound 1013]
Validated cytotoxicity [1]: +

1610 (DNA AAGGGTAGTCCGAGCCGGACGAGGGGCTCCT; chemistry not given here) [compound 1610]
Validated cytotoxicity [1]: +

354 (DNA CGGTTCTGAGGCTAGCTACAACGAATGGCGCCT; chemistry not given here) [compound 354]
Validated cytotoxicity [1]: +

252 (DNA TACTCCCCAGGCTAGCTACAACGAATAGCCCGT; chemistry not given here) [compound 252]
Validated cytotoxicity [1]: +

75 (DNA CTCCTACCAGGCTAGCTACAACGACCCCTTCCT; chemistry not given here) [compound 75]
Validated cytotoxicity [1]: +

1089 (DNA TAAATAGTAGGCTAGCTACAACGATTCATAAAA; chemistry not given here) [compound 1089]
Validated cytotoxicity [1]: +

317 (DNA TGGTTGCAGGGCTAGCTACAACGAAGCTTTGTT; chemistry not given here) [compound 317]
Validated cytotoxicity [1]: +

304 (DNA TTTGTTGGTCCGAGCCGGACGAAGGAAGGGG; chemistry not given here) [compound 304]
Validated cytotoxicity [1]: +

1786 (DNA GAGGTAGAAGGCTAGCTACAACGATAGGGTGCC; chemistry not given here) [compound 1786]
Validated cytotoxicity [1]: +

1976 (DNA GGGGAGGGAGGCTAGCTACAACGAGGGGTGGAT; chemistry not given here) [compound 1976]
Validated cytotoxicity [1]: +
